Our source for the mutagenic call values is PubChem BioAssay AID1259407 (Chemical Carcinogenesis Research Information System (CCRIS), 2018).

The subject of this data set is CCRIS mutagenicity, Ames/micronucleus/aberration tests. Put plainly: CCRIS mutagenicity studies.
Setting [1] is: Test System: AMES SALMONELLA TYPHIMURIUM, Strain/Indicator: TA98, Metabolic Activation: NONE, Method: PREINCUBATION
Setting [2] is: Test System: AMES SALMONELLA TYPHIMURIUM, Strain/Indicator: TA98, Metabolic Activation: NONE, Method: STANDARD PLATE.
The mark [3] stands for this setting: Test System: AMES SALMONELLA TYPHIMURIUM, Strain/Indicator: TA100, Metabolic Activation: NONE, Method: PREINCUBATION
The mark [4] stands for this setting: Test System: AMES SALMONELLA TYPHIMURIUM, Strain/Indicator: TA100, Metabolic Activation: NONE, Method: STANDARD PLATE.
[5] abbreviates: Test System: AMES SALMONELLA TYPHIMURIUM, Strain/Indicator: TA1535, Metabolic Activation: NONE, Method: PREINCUBATION
Setting [6] is: Test System: AMES SALMONELLA TYPHIMURIUM, Strain/Indicator: TA1537, Metabolic Activation: NONE, Method: PREINCUBATION

Active and inactive are the calls of the source. The rule behind the calls is not given here.

`O=[N+]([O-])c1cc2c3c(c1)CCc1c4c(cc(c1-3)CC2)CCCC4`: the mutagenic call is, setting by setting: (Test System: AMES SALMONELLA TYPHIMURIUM, Strain/Indicator: TA98(1,8-DNP6), Metabolic Activation: NONE) “active; positive”; (Test System: AMES SALMONELLA TYPHIMURIUM, Strain/Indicator: TA98(1,8-DNP6), Metabolic Activation: RAT, LIVER, S-9, AROCLOR 1254) “active; positive”; (Test System: AMES SALMONELLA TYPHIMURIUM, Strain/Indicator: TA98(NR), Metabolic Activation: NONE) “active; positive”; (Test System: AMES SALMONELLA TYPHIMURIUM, Strain/Indicator: TA98(NR), Metabolic Activation: RAT, LIVER, S-9, AROCLOR 1254) “active; positive”; (Test System: AMES SALMONELLA TYPHIMURIUM, Strain/Indicator: TA98, Metabolic Activation: NONE) “active; positive”; (Test System: AMES SALMONELLA TYPHIMURIUM, Strain/Indicator: TA98, Metabolic Activation: RAT, LIVER, S-9, AROCLOR 1254) “active; positive”. Further, the mutagenic call was “active; positive” (Test System: AMES SALMONELLA TYPHIMURIUM, Strain/Indicator: TA100(NR), Metabolic Activation: NONE); “active; positive” (Test System: AMES SALMONELLA TYPHIMURIUM, Strain/Indicator: TA100(NR), Metabolic Activation: RAT, LIVER, S-9, AROCLOR 1254); “active; positive” (Test System: AMES SALMONELLA TYPHIMURIUM, Strain/Indicator: TA100, Metabolic Activation: NONE); “active; positive” (Test System: AMES SALMONELLA TYPHIMURIUM, Strain/Indicator: TA100, Metabolic Activation: RAT, LIVER, S-9, AROCLOR 1254); “active; positive” (Test System: AMES SALMONELLA TYPHIMURIUM, Strain/Indicator: TA104, Metabolic Activation: NONE); “active; positive” (Test System: AMES SALMONELLA TYPHIMURIUM, Strain/Indicator: TA104, Metabolic Activation: RAT, LIVER, S-9, AROCLOR 1254).

Turning to `CN(CCO)CCO`, the mutagenic call by setting is: (Test System: AMES SALMONELLA TYPHIMURIUM, Strain/Indicator: TA98, Metabolic Activation: HAMSTER, LIVER, S-9, AROCLOR 1254 (10%), Method: PREINCUBATION) “inactive; negative”; under setting [1], “inactive; negative”; under setting [2], “inactive; negative”; (Test System: AMES SALMONELLA TYPHIMURIUM, Strain/Indicator: TA98, Metabolic Activation: RAT, LIVER, S-9, AROCLOR 1254 (10%), Method: PREINCUBATION) “inactive; negative”; (Test System: AMES SALMONELLA TYPHIMURIUM, Strain/Indicator: TA98, Metabolic Activation: RAT, LIVER, S-9, AROCLOR 1254, Method: STANDARD PLATE) “inactive; negative”; (Test System: AMES SALMONELLA TYPHIMURIUM, Strain/Indicator: TA100, Metabolic Activation: HAMSTER, LIVER, S-9, AROCLOR 1254 (10%), Method: PREINCUBATION) “inactive; negative”. For the same compound, the mutagenic call under setting [3] is “inactive; negative”; the mutagenic call under setting [4] was “inactive; negative”; the mutagenic call (Test System: AMES SALMONELLA TYPHIMURIUM, Strain/Indicator: TA100, Metabolic Activation: RAT, LIVER, S-9, AROCLOR 1254 (10%), Method: PREINCUBATION) is “inactive; negative”; the mutagenic call (Test System: AMES SALMONELLA TYPHIMURIUM, Strain/Indicator: TA100, Metabolic Activation: RAT, LIVER, S-9, AROCLOR 1254, Method: STANDARD PLATE) is “inactive; negative”; the mutagenic call (Test System: AMES SALMONELLA TYPHIMURIUM, Strain/Indicator: TA1535, Metabolic Activation: HAMSTER, LIVER, S-9, AROCLOR 1254 (10%), Method: PREINCUBATION) was “inactive; negative”; the mutagenic call under setting [5] is “inactive; negative”. The mutagenic call was “inactive; negative” (Test System: AMES SALMONELLA TYPHIMURIUM, Strain/Indicator: TA1535, Metabolic Activation: NONE, Method: STANDARD PLATE); “inactive; negative” (Test System: AMES SALMONELLA TYPHIMURIUM, Strain/Indicator: TA1535, Metabolic Activation: RAT, LIVER, S-9, AROCLOR 1254 (10%), Method: PREINCUBATION); “inactive; negative” (Test System: AMES SALMONELLA TYPHIMURIUM, Strain/Indicator: TA1535, Metabolic Activation: RAT, LIVER, S-9, AROCLOR 1254, Method: STANDARD PLATE); “inactive; negative” (Test System: AMES SALMONELLA TYPHIMURIUM, Strain/Indicator: TA1537, Metabolic Activation: HAMSTER, LIVER, S-9, AROCLOR 1254 (10%), Method: PREINCUBATION); “inactive; negative” under setting [6]; “inactive; negative” (Test System: AMES SALMONELLA TYPHIMURIUM, Strain/Indicator: TA1537, Metabolic Activation: NONE, Method: STANDARD PLATE). The mutagenic call by setting is: (Test System: AMES SALMONELLA TYPHIMURIUM, Strain/Indicator: TA1537, Metabolic Activation: RAT, LIVER, S-9, AROCLOR 1254 (10%), Method: PREINCUBATION) “inactive; negative”; (Test System: AMES SALMONELLA TYPHIMURIUM, Strain/Indicator: TA1537, Metabolic Activation: RAT, LIVER, S-9, AROCLOR 1254, Method: STANDARD PLATE) “inactive; negative”; (Test System: AMES SALMONELLA TYPHIMURIUM, Strain/Indicator: TA1538, Metabolic Activation: NONE, Method: STANDARD PLATE) “inactive; negative”; (Test System: AMES SALMONELLA TYPHIMURIUM, Strain/Indicator: TA1538, Metabolic Activation: RAT, LIVER, S-9, AROCLOR 1254, Method: STANDARD PLATE) “inactive; negative”; (Test System: CHINESE HAMSTER OVARY, Strain/Indicator: CHO-K1-BH4, Metabolic Activation: NONE) “inactive; negative”; (Test System: CHINESE HAMSTER OVARY, Strain/Indicator: CHO-K1-BH4, Metabolic Activation: RAT, LIVER, S-9, AROCLOR 1254) “inactive; negative”.

Turning to `O=[N+]([O-])c1ccc2ccc3cc4c(c5ccc1c2c35)CCCC4`, the mutagenic call was “active; positive” under setting [2] and “inactive; negative” under setting [4].

`O=C1CCCCCCCCCCCCCCO1`: the mutagenic call is “inactive; negative” under setting [1]; “inactive; negative” (Test System: AMES SALMONELLA TYPHIMURIUM, Strain/Indicator: TA98, Metabolic Activation: RAT LIVER S-9, PHENOBARBITAL AND BETA-NAPHTHOFLAVONE, Method: PREINCUBATION); “inactive; negative” under setting [3]; “inactive; negative” (Test System: AMES SALMONELLA TYPHIMURIUM, Strain/Indicator: TA100, Metabolic Activation: RAT LIVER S-9, PHENOBARBITAL AND BETA-NAPHTHOFLAVONE, Method: PREINCUBATION); “inactive; negative” (Test System: AMES SALMONELLA TYPHIMURIUM, Strain/Indicator: TA102, Metabolic Activation: NONE, Method: PREINCUBATION); “inactive; negative” (Test System: AMES SALMONELLA TYPHIMURIUM, Strain/Indicator: TA102, Metabolic Activation: RAT LIVER S-9, PHENOBARBITAL AND BETA-NAPHTHOFLAVONE, Method: PREINCUBATION). The mutagenic call is, setting by setting: (Test System: AMES SALMONELLA TYPHIMURIUM, Strain/Indicator: TA104, Metabolic Activation: NONE, Method: PREINCUBATION) “inactive; negative”; (Test System: AMES SALMONELLA TYPHIMURIUM, Strain/Indicator: TA104, Metabolic Activation: RAT LIVER S-9, PHENOBARBITAL AND BETA-NAPHTHOFLAVONE, Method: PREINCUBATION) “inactive; negative”; under setting [5], “inactive; negative”; (Test System: AMES SALMONELLA TYPHIMURIUM, Strain/Indicator: TA1535, Metabolic Activation: RAT LIVER S-9, PHENOBARBITAL AND BETA-NAPHTHOFLAVONE, Method: PREINCUBATION) “inactive; negative”; under setting [6], “inactive; negative”; (Test System: AMES SALMONELLA TYPHIMURIUM, Strain/Indicator: TA1537, Metabolic Activation: RAT LIVER S-9, PHENOBARBITAL AND BETA-NAPHTHOFLAVONE, Method: PREINCUBATION) “inactive; negative”. For the same compound, the mutagenic call reads like this: (Test System: E.COLI, Strain/Indicator: WP2UVRA/PKM101, Metabolic Activation: NONE, Method: PREINCUBATION) “inactive; negative”; (Test System: E.COLI, Strain/Indicator: WP2UVRA/PKM101, Metabolic Activation: RAT LIVER S-9, PHENOBARBITAL AND BETA-NAPHTHOFLAVONE, Method: PREINCUBATION) “inactive; negative”; (Test System: E.COLI, Strain/Indicator: WP2UVRA, Metabolic Activation: NONE, Method: PREINCUBATION) “inactive; negative”; (Test System: E.COLI, Strain/Indicator: WP2UVRA, Metabolic Activation: RAT LIVER S-9, PHENOBARBITAL AND BETA-NAPHTHOFLAVONE, Method: PREINCUBATION) “inactive; negative”.
